The values that follow come from PubChem BioAssay (NCI).

Holding throughout (assay): NCI-60 cell line screen, 48 h
For experiment [1], the system named is SF-268 CNS.
Experiment [2] deals with SW-620 colon.
Experiment [3] concerns NCI-H226 lung.
In experiment [4] the test system is HCT-116 colon.
Experiment [5] deals with ACHN renal.
Experiment [6] relates to HOP-62 NSCLC.
Experiment [7] relates to HCC-2998 colon.
Experiment [8] has as its system SF-539 CNS.
For experiment [9], the system named is SK-MEL-28 melanoma.
Experiment [10] concerns IGROV1 ovarian.
The subject of experiment [11] is A498 renal.
The subject of experiment [12] is OVCAR-5 ovarian.
Experiment [13] has as its system DU-145 prostate.
In experiment [14] the test system is SNB-19 CNS.

The structures appear in SMILES notation.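 Briefly, cells in 96-well plates were exposed to five compound concentrations for 48 h, and endpoints were estimated by linear interpolation. The concentration for full growth arrest is given as TGI.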 A value given as a limit tells only on which side of the number the result lay.

Turning to `Cc1ccc(S(=O)(=O)Nn2c(S)c(C#N)c(-c3ccc([N+](=O)[O-])cc3)c(C#N)c2=O)cc1`, the TGI in experiment [1] is greater than 100 µM; in [2] it was 35.1 µM; in experiment [3], greater than 100 µM; in [4], 32.8 µM; in experiment [5] it was greater than 100 µM; in [6], greater than 100 µM. Besides, the TGI in experiment [7] is greater than 100 µM; in experiment [8] it was 35.4 µM; in experiment [9] it was greater than 100 µM; in experiment [10], 51 µM; in experiment [11], greater than 100 µM; in experiment [12], greater than 100 µM.

Turning to `O=c1oc(-c2ccccc2)c(-c2ccccc2)n1-c1ccc(Br)cc1`, the TGI was 89.4 µM in [13]; greater than 100 µM in experiment [1]; greater than 100 µM in experiment [2]; greater than 100 µM in experiment [14]; greater than 100 µM in experiment [3]; greater than 100 µM in experiment [4]. Besides, the TGI in experiment [5] is greater than 100 µM; in experiment [6], greater than 100 µM; in [8] it was 53.8 µM; in experiment [9] it was greater than 100 µM; in experiment [10] it was greater than 100 µM; in experiment [11], greater than 100 µM. Besides, the TGI in experiment [12] is greater than 100 µM.

For the molecule `Nc1ncnc2c1cnn2Cc1cn(COCC(O)CO)nn1` (stereo not drawn), the TGI in experiment [13] is greater than 100 µM; in experiment [1] it was 34.9 µM; in experiment [2], greater than 100 µM; in experiment [14], greater than 100 µM; in [4], greater than 100 µM; in experiment [5], greater than 100 µM. In addition, the TGI in [6], in experiment [7], in experiment [8], in [9], in experiment [10] and in experiment [11] was greater than 100 µM in each case. In experiment [12], this molecule came in with a TGI greater than 100 µM.

Regarding `O=C1[C@@H]2C[C@@H](O)CN2C(=O)c2ccccc2N1CCCO`, the TGI in experiment [13], in experiment [1], in [2], in experiment [14], in experiment [3] and in experiment [4] was greater than 100 µM in each case. Further, the TGI in experiment [5], in [6], in experiment [8], in experiment [9], in experiment [10] and in [11] was greater than 100 µM throughout. The TGI in [12] was greater than 100 µM.

`C=CCNC(=O)NCCCC(NC(C)=O)C(=O)NCc1ccccc1` (stereo not drawn): the TGI in experiment [1], in experiment [2], in experiment [14], in experiment [3], in [5] and in [6] was greater than 100 µM each time. The TGI in [8], in [9], in experiment [10], in [11] and in experiment [12] was greater than 100 µM throughout.

In the case of `O=C1CC(C(=O)N2CCCCC2)n2c(=O)n(-c3ccccc3)c(=O)n2C1` (stereo not drawn), the TGI in [13], in [1], in experiment [14], in [3], in experiment [4] and in experiment [5] was greater than 100 µM each time. Moreover, the TGI in experiment [6], in experiment [7], in experiment [8], in [10] and in experiment [12] was greater than 100 µM in each case.

As for `C[n+]1cccc2ccc(OC(=O)c3ccccc3)cc21`, the TGI in [13], in experiment [1], in [2], in experiment [14], in experiment [3] and in [4] was greater than 100 µM throughout. Besides, the TGI in experiment [5], in experiment [6], in experiment [8], in [10], in [11] and in experiment [12] was greater than 100 µM each time.

Turning to `Cc1ccc(S(=O)(=O)NNC2(NS(=O)(=O)c3ccc(Cl)cc3)C(Cl)=C(Cl)C(=O)c3ccccc32)cc1` (stereo not drawn), the TGI in [13] was found to be 33.2 µM; in [1], 29.6 µM; in experiment [2] it was 76 µM; in experiment [14] it was 29.8 µM; in experiment [4] it was 32.4 µM; in experiment [5], 29.7 µM. Also, the TGI was determined as 54.8 µM in experiment [6]; 33.2 µM in [7]; 48.8 µM in experiment [8]; 60.7 µM in experiment [9]; 34.3 µM in experiment [10]; 36.7 µM in [11]. Besides, in [12], the TGI turned out to be 33.4 µM.

On to `COC(=O)C1=C(CCCCO[Si](C)(C)C(C)(C)C)NC(=O)N2[C@@H](CCOCc3ccccc3)CC[C@H]12`, for which the TGI in experiment [13] is greater than 100 µM; in experiment [1] it was greater than 100 µM; in experiment [14], greater than 100 µM; in experiment [4] it was 24.6 µM; in experiment [5] it was greater than 100 µM; in experiment [6], 65.2 µM. Besides, the TGI was 78.9 µM in experiment [7], greater than 100 µM in experiment [9], greater than 100 µM in experiment [11] and greater than 100 µM in experiment [12].
